Publication PMC4213378, “Pharmacokinetics and Efficacy of the Spleen Tyrosine Kinase Inhibitor R406 after Ocular Delivery for Retinoblastoma” (Pharmaceutical Research, 2014)
In brackets after ≈: the same amount, converted by molar mass.

How the values were obtained:
[1] = test system: retinoblastoma cells; parameters: method as in PMID 22237022; settings: cited from earlier work
[2] = test system: human orthotopic retinoblastoma xenografts; parameters: method as in PMID 22237022; settings: cited from earlier work
[3] = Crashing upon dilution of DMSO stock in PBS; assay type: physicochemical
Text: Supplement 11095_2014_1399_MOESM1_ESM.docx, table 14: Table S14. R406 phenylsulfonate salt and free base crashing upon dilution of DMSO stock in PBS | column: Measured Concentration

[4] = Maximum solubility in PBS or saline; assay type: physicochemical
[5] = Concentration and stability of R406 in castor oil and castor oil emulsion; assay type: physicochemical
Protocol: (§1) For oral delivery of R788, the target dose of 25 mg/kg R788 was administered by oral gavage as a 4 mM solution in 0.01 N citrate buffer, pH 6 ([9]). For subconjunctival administration, R788 was prepared at a concentration of 4 mM in 2% PEG-800 and filtered through a 0.22 μm filter prior to use (see Table S1). R788 was also administered subconjunctivally as a suspension at a concentration of 25 mM in 10% 2-hydroxylpropyl-β-cyclodextrin (HPβCD, Sigma-Aldrich). For subconjunctival administration, R406 phenylsulfonate salt was administered at a concentration of 800–900 μM as a cosolvent solution in a formulation of 5% Cremaphor-eL, 0.5% ethanol, 0.2% Tween 80 and 94.3% PBS, filtered through a 0.22 μm filter prior to use (see Table S2). R406 phenylsulfonate salt was also administered subconjunctivally at a dose of 31.4 mM solution in DMSO. R406 free base was administered subconjunctivally at a concentration of 6.5 mM as a 25% castor oil (Sigma-Aldrich) emulsion. This emulsion was prepared by mixing castor oil: ethanol (1:1) solution of R406 (approx. 35 mM), in vacuo evaporation of the ethanol, and centrifugation to remove any excess R406, then emulsifying the R406 oil phase in an aqueous phase comprised of Cremaphor-eL, Tween 80 and PBS (final composition of the emulsion: 25% castor oil, 5% Cremaphor-eL, 0.2% Tween-80, 69.8% PBS) by probe sonication. For intravitreal injection, R788 solution was prepared by filtering a 0.12 mM (120 μM) solution of R788 in saline through a 0.22 μm filter. […] For topical delivery, 25–30 mM suspensions were prepared in 5% HPβCD. R406 or R788 concentration in all formulations was determined by UPLC prior to study (in cases where formulation was filtered before administration, concentration was determined post-filtering) Table I.
An emulsion of 30% castor oil, 5% Cremaphor, 4% T80, 61% PBS was prepared and samples were stored at 4 °C and room temperature (25 °C). Samples were diluted and OD600 for each dilution was measured in triplicate on the day of emulsion preparation (storage time = 0 days) and after 6 days of storage. OD600 was measured using a black Costar clear bottom plate and a Spectramax plate reader.
For storage stability in emulsion, n =4.

[6] = Vitreous pharmacokinetics after oral or subconjunctival administration; assay type: in vivo, mouse; settings: local (subconjunctival), castor oil emulsion 6.5 mM, 65 nmol per eye, mice
Protocol: as §1
(§2) For the systemic delivery study R788 was administered as a single bolus dose (25 mg/kg, 10 mL/kg volume) by oral gavage. For the subconjunctival administration study R788 or R406 (10 µL of formulation) was injected into the subconjunctival space of an anesthetized mouse using a Hamilton microliter syringe (Hamilton company, Reno NV). For the intravitreal administration study, R788 (5 μL of […] in saline) was administered to each eye via direct injection. To perform the intravitreal injection, mice were anesthetized, a small incision between the sclera and the cornea was created with a […] needle, and the R788 was injected into the vitreous using a Hamilton microliter syringe. For the topical administration study, R406 (2 μL of 25–30 mM suspension) was applied as a drop to the surface of each eye of an anesthetized mouse.
(§3) At serial time points (0.5, 1, 2, 4, and 8 h post-injection, n = 3 for each time point), blood was collected by terminal cardiac puncture after isoflurane anesthesia. Whole-blood samples were centrifuged immediately at 10,000×g for 5 min at 4°C to separate plasma. Once the cardiac puncture and blood collection was completed, the animal was perfused with 10 mL of saline and euthanized by cervical dislocation. Eyes were removed, rinsed in PBS, gently patted dry, then rinsed and dried again. Eyes were dissected and vitreous was collected. Plasma and vitreous samples were put on dry ice immediately after collection and stored at −80°C until analysis. For quantitative analysis methods and assay validation methods and results, see Supplementary Information.
(§4) Plasma and vitreous concentration time data were analyzed using non-compartmental analysis in WinNonlin 6.2 (Pharsight, Mountain View, CA), providing PK parameters including Cmax (maximum observed concentration), Tmax (time to reach maximum observed concentration), AUC (area under the concentration time curve) and MRT (mean residence time). AUC and AUMC (area under the concentration time first moment curve) values were estimated with the linear trapezoidal method, with parameters calculated using mean concentration values at each time point. […]

[7] = Intraocular and plasma R406 after topical administration (eye drops); assay type: in vivo, mouse; settings: mice; for R406 levels in the eye at 0.5 h post dosing / R406 levels in the eye at 1 h post dosing / drug in plasma samples: single topical dose; for R406 levels in the eye at 0.5 h post dosing / R406 levels in the eye at 1 h post dosing: drops, 2 μL of 25 mM suspension in 5% HPβCD; for drug in plasma samples: data not shown
Protocol: as §1, §2, §3
To evaluate the topical route for R406 delivery, we tested the intraocular concentration after a single topical dose of R406 free base or an R406 […] salt.

[8] = Plasma pharmacokinetics after oral or subconjunctival administration; assay type: in vivo, mouse; settings: local (subconjunctival), castor oil emulsion 6.5 mM, 65 nmol per eye; mice
Protocol: as §1, §2, §3, §4

[9] = Vitreous and plasma R406 after intravitreal injection of R788; assay type: in vivo, mouse; settings: intravitreal injection of R788 in saline, 5 μL per eye of 120 μM; mice
Protocol: For oral delivery of R788, the target dose of 25 mg/kg R788 was administered by oral gavage as a 4 mM solution in 0.01 N citrate buffer, pH 6 ([9]). For subconjunctival administration, R788 was prepared at a concentration of 4 mM in 2% PEG-800 and filtered through a 0.22 μm filter prior to use (see Table S1). R788 was also administered subconjunctivally as a suspension at a concentration of 25 mM in 10% 2-hydroxylpropyl-β-cyclodextrin (HPβCD, Sigma-Aldrich). For subconjunctival administration, R406 phenylsulfonate salt was administered at a concentration of 800–900 μM as a cosolvent solution in a formulation of 5% Cremaphor-eL, 0.5% ethanol, 0.2% Tween 80 and 94.3% PBS, filtered through a 0.22 μm filter prior to use (see Table S2). R406 phenylsulfonate salt was also administered subconjunctivally at a dose of 31.4 mM solution in DMSO. […] R406 or R788 concentration in all formulations was determined by UPLC prior to study (in cases where formulation was filtered before administration, concentration was determined post-filtering) Table I. […]
At serial time points (0.5, 1, 2, 4, and 8 h post-injection, n = 3 for each time point), blood was collected by terminal cardiac puncture after isoflurane anesthesia. […] For quantitative analysis methods and assay validation methods and results, see Supplementary Information.

[10] = Co-solvent solution formulation solubility matrix; assay type: physicochemical; settings: read-out: R788 Solubility
[11] = Bioconversion of R788 to R406 in mouse vitreous; assay type: in vitro ADME; settings: extracted mouse vitreous, 37°C, initial 25 μM R788, within 2 h
Protocol: Conversion of R788 to R406 was examined in freshly harvested murine vitreous, 2 U/mL bovine alkaline phosphatase in PBS (positive control), or plain PBS (no enzyme, negative control) at 37°C using a modified version of previously described phosphate prodrug conversion protocols ([9], [12]). Alkaline phosphatase (ALP) from bovine intestinal mucosa was obtained from Invitrogen and was reconstituted and diluted according to the manufacturer’s instructions. Vitreous was harvested from a mixed population of mice, pooled, and kept on ice for 1 - 2 h. The incubation media were pre-warmed to 37°C before the reaction was initiated by addition of 1 mM of R788 in saline (6 μL of R788 in saline into 234 μL of incubation media in a 1.5 mL Eppendorf tube). R788 was diluted into the incubation media at a 1:40 ratio (volume:volume) to mimic the dilution encountered during intravitreal injection in humans (typically 100 μL injection volume into 4–5 mL of human vitreous volume ([13], [14]). Initial estimated concentration of R788 was 25 μM. At the desired time points (0, 5, 10, 20, 30, 45, 60, and 120 min) an aliquot of 25 μl was collected from each incubation vial and transferred to a 1.5 mL Eppendorf tube, containing 25 μl of acetonitrile to terminate the reaction. 3 samples were tested per time point. Samples were stored at −80°C until quantification.

[12] = parameters: method as in PMID 21515735; settings: previous work; cited from earlier work
[13] = parameters: method as in PMID 21515735; settings: subconjunctival administration; previous work; cited from earlier work

COc1ccc(-c2cc3nccn3c(Nc3ncccc3C(N)=O)n2)cc1OC [BAY-61-3606]
induction of caspase-mediated cell death of retinoblastoma cells in vitro [1]: can induce caspase-mediated cell death | blocking proliferation of human orthotopic retinoblastoma xenografts in vivo [2]: efficacious

COc1cc(Nc2ncc(F)c(Nc3ccc4c(n3)NC(=O)C(C)(C)O4)n2)cc(OC)c1OC [R406 free base]
Measured Concentration ([3]; DMSO stock diluted 1 in 10 in PBS prior to filtration (theoretical 1.11 mM)): 965 µM | Measured Concentration ([3]; DMSO stock diluted 1 in 10 in PBS, 0.22 micron filtered): 7 µM | Measured Concentration ([3]; DMSO stock diluted 1 in 20 in PBS, 0.22 micron filtered): 6 µM | Measured Concentration ([3]; DMSO stock, printed 'diluted 1 in 10 in PBS prior to filtration' (second such line, theoretical 557 µM)): 510 µM | solubility in PBS ([4]; PBS): insoluble (below the limit of quantitation) | time stable in castor oil ([5]; room temperature): at least 6 days | average concentration remaining, % of the initial concentration ([5]; stored in castor oil at room temperature, after 6 days, n=3): 113.3% | Cmax [6]: 169 ± 35.9 nM | Vitreous AUClast [6]: 0.43 µM·h | Vitreous Dose normalized AUC [6]: 3.3 nM∙h/nmol | Vitreous MRT0-4h [6]: 2.19 h | Vitreous Tlast [6]: 4 h | Vitreous Tmax [6]: 0.5 h | Vitreous MRT0-4h ([6]; listed as R406 base): ≥ 2 h | R406 levels in the eye at 0.5 h post dosing [7]: 0.1 ± 0.06 µM | R406 levels in the eye at 1 h post dosing [7]: 0.1 ± 0.1 µM | drug in plasma samples [7]: No detectable drug | Cmax [8]: 119 nM | Plasma AUClast [8]: 0.119 µM·h | Plasma Dose normalized AUC [8]: 0.9 nM∙h/nmol | Plasma Tlast [8]: 2 h | Plasma Tmax [8]: 0.5 h

CCCCCCCCCCCCCCCC(=O)O.COc1cc(Nc2ncc(F)c(Nc3ccc4c(n3)NC(=O)C(C)(C)O4)n2)cc(OC)c1OC [R406 palmitate salt]
R406 levels in the eye at 0.5 h post dosing [7]: 0.3 ± 0.3 µM | R406 levels in the eye at 1 h post dosing [7]: 0.3 ± 0.2 µM | drug in plasma samples [7]: No detectable drug | vitreous concentration of R406 ([7]; topical 40 mM R406 palmitate 5% cyclodextrin suspension, 1-4 hourly doses, sustained for 1.5 h after each application): 1 to 2 µM | Cmax ([7]; topical delivery in cyclodextrin drops, sustainable via repeated dosing, read-out: vitreous Cmax / intraocular concentration): > 1000 nM

COc1cc(Nc2ncc(F)c(Nc3ccc4c(n3)N(COP(=O)(O)O)C(=O)C(C)(C)O4)n2)cc(OC)c1OC [R788]
R406 levels in plasma samples [9]: BLOQ | solubility ([4]; PBS, read-out: maximum solubility in PBS): 1400 µM (≈ 813 µg/mL) | solubility ([4]; saline, read-out: maximum solubility in saline): 1200 to 1400 µM (≈ 697 to 813 µg/mL) | solubility ([10]; Trial 2: 2% PEG-8000, 98% PBS): 3560 µM (≈ 2070 µg/mL) | solubility ([10]; aqueous buffer, Trial 3: 0.5% EtOH, 99.5% PBS): 1010 µM (≈ 586 µg/mL) | solubility ([10]; aqueous buffer, Trial 4: 3% Glycerin, 97% PBS): 1130 µM (≈ 656 µg/mL) | solubility ([10]; aqueous buffer, Trial 9: 100% PBS): 1240 µM (≈ 720 µg/mL) | solubility ([10]; aqueous with cosolvent or surfactant or cyclodextrin, Trial 1: 0.1% Tyloxapol, 99.9% PBS): 1230 µM (≈ 714 µg/mL) | solubility ([10]; aqueous with cosolvent or surfactant or cyclodextrin, Trial 5: 5% Cremaphor-eL, 95% PBS): 1430 µM (≈ 830 µg/mL) | solubility ([10]; aqueous with cosolvent or surfactant or cyclodextrin, Trial 6: 10% PPG, 90% PBS): 1130 µM (≈ 656 µg/mL) | solubility ([10]; aqueous with cosolvent or surfactant or cyclodextrin, Trial 7: 15% pPPG, 85% PBS): 1530 µM (≈ 888 µg/mL) | solubility ([10]; aqueous with cosolvent or surfactant or cyclodextrin, Trial 8: 4% Tween-80, 96% PBS): 1710 µM (≈ 993 µg/mL) | solubility ([10]; aqueous with cosolvent or surfactant or cyclodextrin, Trial 10: 5% Cremaphor-eL, 4% Tween-80, 91% PBS): 1510 µM (≈ 877 µg/mL) | solubility ([10]; aqueous with cosolvent or surfactant or cyclodextrin, Trial 11: 15% pPPG, 4% Tween-80, 81% PBS): 1840 µM (≈ 1070 µg/mL) | solubility ([10]; aqueous with cosolvent or surfactant or cyclodextrin, Trial 12: 5% Cremaphor-eL, 15% pPPG, 80% PBS): 2150 µM (≈ 1250 µg/mL) | solubility ([10]; aqueous with cosolvent or surfactant or cyclodextrin, Trial 13: 5% Cremaphor-eL, 15% pPPG, 4% Tween-80, 76% PBS): 2640 µM (≈ 1530 µg/mL) | solubility ([10]; aqueous with cosolvent or surfactant or cyclodextrin, Trial 14: 2% PEG-8000, 5% Cremaphor-eL, 15% pPPG, 4% Tween-80, 74% PBS): 3470 µM (≈ 2010 µg/mL) | conversion of R788 to R406 [11]: 100%

COc1ccc(C2=N[C@@H](c3ccc(Cl)cc3)[C@@H](c3ccc(Cl)cc3)N2C(=O)N2CCNC(=O)C2)c(OC(C)C)c1 [nutlin-3a]
water solubility [12]: approximately 40 μM | AUC ratio of vitreous to plasma [13]: 28.6
